Test results as given in US20070203091A1, “Methods and therapeutic compositions for improving liver, blood flow and skeletal muscle functions in advanced diseases and aging” (priority 2006, published 2007).

Legend:
[1] = Tumor burden endpoints (PSA), Phase I study; type: in vivo, human
[2] = ATP pharmacokinetics: blood plasma (extracellular) ATP levels, Phase I study; type: in vivo, human; conditions: for Initial Extracellular ATP Concentration, Median: ITT
Description: The solution was administered by continuous intravenous infusions using an Ivac or similar infusion device through venous access in a peripheral vein. If venous access was a problem, either a Hickman catheter or its equivalent, or an Infusaport or its equivalent was inserted to provide vascular access.
The 50 μg/kg/min dose could be reduced to 25 μg/kg/min if adverse effects occurred. […] Succeeding infusions in that patient were at the infusion dose tolerated at the end of the previous treatment. If adverse events occurred in patients being infused at 25 μg/kg/min, the infusions were terminated and the patient received no additional infusions.

[3] = Stability of ATP drug product and infusion solution; type: physicochemical
Description: An example of a clinical procedure in the treatment of individuals in need thereof is as follows. After determination of baseline, pre-treatment vital signs, hemodynamic variables and blood chemistry, an ATP dose escalation procedure is initiated. ATP is provided as a sterile solution in single use vials. […] Storage of the clinical solution is at controlled refrigerated temperature (2° C.-6° C.). […] The concentration of the final sterile solution for the infusion is 8 mg/ml.
See attached AAI International Analytical Testing Report Aug. 2, 2001.

[4] = Cachexia markers Part I: serum albumin, pre-albumin, C-Reactive Protein, Phase I study; type: in vivo, human; conditions: ITT
Excerpt: The data for albumin, LDH and Bilirubin support claims reciting improvement in liver function by claimed treatment of a human host in need thereof. Serum LDH levels are an established strong independent negative prognostic factor, inversely related to survival in a great variety of adverse clinical conditions. In advanced refractory cancers, high LDH and low Karnofsky's performance status are among the strongest established independent negative prognostic factors of survival and quality of life (29).

[5] = Week 1 (Infusion 1), baseline, N=15

Nc1ncnc2c1ncn2[C@@H]1O[C@H](COP(=O)(O)OP(=O)(O)OP(=O)(O)O)[C@@H](O)[C@H]1O [ATP, adenosine 5′-triphosphate]
Tumor burden Endpoints: PSA Post ([1]; Patient 503, PSA Pre 4000): Post 3903 | PSA compared to baseline ([1]; Patient 503, at the end of follow up): unchanged | Tumor burden Endpoints: PSA ([1]; Patient 507, increased after stopping Rx): PSA unchanged | blood plasma (extracellular) ATP levels ([2]; ATP continuously for eight hours): increases | Initial Extracellular ATP Concentration, Median ([2]; Week 1 (Infusion 1), 4 hours into infusion, N=13): 0.109 µM | Initial Extracellular ATP Concentration, Median ([2]; Week 1 (Infusion 1), 8.25 hours, N=1): 0.141 µM | Initial Extracellular ATP Concentration, Median ([2]; Week 1 (Infusion 1), 9 hours, N=10): 0.150 µM | Initial Extracellular ATP Concentration, Median ([2]; Week 1 (Infusion 1), 10 hours, N=12): 0.091 µM | Initial Extracellular ATP Concentration, Median ([2]; Week 1 (Infusion 1), 11 hours, N=12): 0.062 µM | Initial Extracellular ATP Concentration, Median ([2]; Week 1 (Infusion 1), 12 hours, N=11): 0.044 µM | Initial Extracellular ATP Concentration, Median ([2]; Week 1 (Infusion 1), 14 hours, N=8): 0.029 µM | Initial Extracellular ATP Concentration, Median ([2]; Week 1 (Infusion 1), 16 hours, N=10): 0.050 µM | Initial Extracellular ATP Concentration, Median ([2]; Week 1 (Infusion 1), 20 hours, N=8): 0.052 µM | Initial Extracellular ATP Concentration, Median ([2]; Week 1 (Infusion 1), 24 hours, N=12): 0.079 µM | Initial Extracellular ATP Concentration, Median ([2]; Week 1 (Infusion 1), […], N=10): 0.238 µM | Initial Extracellular ATP Concentration, Median ([2]; Week 3 (Infusion 3), 4 hours into infusion, N=9): 0.200 µM | Initial Extracellular ATP Concentration, Median ([2]; Week 3 (Infusion 3), 8 hours (before the end), N=9): 0.240 µM | Initial Extracellular ATP Concentration, Median ([2]; Week 3 (Infusion 3), 8.25 hours, N=1): 0.055 µM | Initial Extracellular ATP Concentration, Median ([2]; Week 3 (Infusion 3), 9 hours, N=9): 0.170 µM | Initial Extracellular ATP Concentration, Median ([2]; Week 3 (Infusion 3), 10 hours, N=9): 0.060 µM | Initial Extracellular ATP Concentration, Median ([2]; Week 3 (Infusion 3), 11 hours, N=10): 0.060 µM | Initial Extracellular ATP Concentration, Median ([2]; Week 3 (Infusion 3), 12 hours, N=8): 0.065 µM | Initial Extracellular ATP Concentration, Median ([2]; Week 3 (Infusion 3), 14 hours, N=6): 0.032 µM | Initial Extracellular ATP Concentration, Median ([2]; Week 3 (Infusion 3), 16 hours, N=5): 0.040 µM | Initial Extracellular ATP Concentration, Median ([2]; Week 3 (Infusion 3), 20 hours, N=5): 0.070 µM | Initial Extracellular ATP Concentration, Median ([2]; Week 3 (Infusion 3), 24 hours, N=8): 0.044 µM | Initial Extracellular ATP Concentration, Median ([2]; Week 3 (Infusion 3), Time ‘0’ (pre-infusion), N=10): 0.055 µM | Initial Extracellular ATP Concentration, Median ([2]; Week 3 (Infusion 3), […], N=9): 0.200 µM | Initial Extracellular ATP Concentration, Median ([2]; Week 8 (infusion 8), 4 hours into infusion, N=3): 0.390 µM | Initial Extracellular ATP Concentration, Median ([2]; Week 8 (infusion 8), Time ‘0’ (pre-infusion), N=3): 0.080 µM | 3 month stability data ([3]; 3 months under routine storage conditions): remains stable at 3 months under | 15 months stability testing ([3]; refrigerated ATP (5° C.)): 99.7 % of label | stability of the final ATP solutions ([3]; room temperature, infusion solution 8 mg/ml): at least 96 hours | C-Reactive Protein, Change from Baseline, Mean [4, 5]: 0.0 mg/dL | C-Reactive Protein, Change from Baseline, Median [4, 5]: 0.0 mg/dL | C-Reactive Protein, Observed Values, Mean [4, 5]: 5.1 mg/dL | C-Reactive Protein, Observed Values, Median [4, 5]: 3.4 mg/dL | Pre-albumin, Change from Baseline, Mean [4, 5]: 0.0 mg/dL | Pre-albumin, Change from Baseline, Median [4, 5]: 0.0 mg/dL | Pre-albumin, Observed Values, Mean [4, 5]: 19.7 mg/dL | Pre-albumin, Observed Values, Median [4, 5]: 18.0 mg/dL | Serum Albumin, Change from Baseline, Mean [4, 5]: 0.0 g/dL | Serum Albumin, Change from Baseline, Median [4, 5]: 0.0 g/dL | Serum Albumin, Observed Values, Mean [4, 5]: 3.3 g/dL | Serum Albumin, Observed Values, Median [4, 5]: 3.4 g/dL | Pre-albumin, Change from Baseline, Mean ([4]; Week 2 (Infusion 2), N=13): -1.2 mg/dL | Pre-albumin, Change from Baseline, Median ([4]; Week 2 (Infusion 2), N=13): 0.0 mg/dL | Pre-albumin, Observed Values, Mean ([4]; Week 2 (Infusion 2), N=13): 19.4 mg/dL | Pre-albumin, Observed Values, Median ([4]; Week 2 (Infusion 2), N=13): 17.0 mg/dL | C-Reactive Protein, Change from Baseline, Mean ([4]; Week 2 (Infusion 2), N=14): 0.1 mg/dL | C-Reactive Protein, Change from Baseline, Median ([4]; Week 2 (Infusion 2), N=14): 0.5 mg/dL | C-Reactive Protein, Observed Values, Mean ([4]; Week 2 (Infusion 2), N=14): 5.0 mg/dL | C-Reactive Protein, Observed Values, Median ([4]; Week 2 (Infusion 2), N=14): 3.3 mg/dL | Serum Albumin, Change from Baseline, Mean ([4]; Week 2 (Infusion 2), N=14): -0.1 g/dL | Serum Albumin, Change from Baseline, Median ([4]; Week 2 (Infusion 2), N=14): 0.0 g/dL | Serum Albumin, Observed Values, Mean ([4]; Week 2 (Infusion 2), N=14): 3.2 g/dL | Serum Albumin, Observed Values, Median ([4]; Week 2 (Infusion 2), N=14): 3.2 g/dL | C-Reactive Protein, Change from Baseline, Mean ([4]; Week 4 (Infusion 4), N=9): 2.5 mg/dL | C-Reactive Protein, Change from Baseline, Median ([4]; Week 4 (Infusion 4), N=9): 1.6 mg/dL | C-Reactive Protein, Observed Values, Mean ([4]; Week 4 (Infusion 4), N=9): 6.6 mg/dL
